From patent US9290478B2, “Substituted quinoxalines as FGFR kinase inhibitors” (ASTEX THERAPEUTICS LTD, priority 2010, dated 2016) come the findings set out here.

A word on the melting point: it is the temperature, or range, at which the solid turns liquid.

The target of one data set is FGFR3 (h) (Homo sapiens, UniProt P22607). The data set is described as follows: FGFR3 (enzymatic assay), TR-FRET. Format: biochemical. As to conditions: 25 μM ATP; read-out: FGFR3 pIC50 (converted). As to the method:
In a final reaction volume of 30 μL, FGFR3 (h) (40 ng/ml) was incubated with 50 mM HEPES pH 7.5, 6 mM MnCl2, 1 mM DTT, 0.1 mM Na3VO4, 0.01% Triton-X-100, 500 nM Btn-Flt3 and 25 μM ATP in the presence of compound (1% DMSO final). After incubation for 60 minutes at room temperature the reaction was stopped with 2.27 nM EU-anti P-Tyr, 7 mM EDTA, 31.25 nM SA-XL-665 and 0.02% BSA which was present for 60 minutes at room temperature. Time-Resolved Fluorescence Resonance Energy Transfer (TR-FRET) signal (ex340 nm. Em 620 nm, em 655 nm) was measured afterwards and results are expressed in RFU (Relative Fluorescence Units). In this assay, the inhibitory effect of different compound concentrations (range 10 μM to 0.1 nM) was determined and used to calculate an IC50 (M) and pIC50 (−log IC50) value.

Another data set addresses T1, VEGFR2 (Homo sapiens, UniProt P35968).
T1 construct: purchased Upstate
The data set is described as follows: Biological Assays B: VEGFR2 in vitro kinase inhibitory activity assay. The class given is biochemical. The conditions noted are these: 0.5 μM ATP, read-out: VEGFR2 pIC50 (converted). Here is the method: (§1) Biological Assays B FGFR3, VEGFR2 and PDGFR In Vitro Kinase Inhibitory Activity Assays
(§2) Enzymes (from Upstate), prepared at 2× final concentration, were incubated with test compounds, biotinylated Fit3 substrate (biotin-VASSDNEYFYVDF) (Cell Signalling Technology Inc.) and ATP in the appropriate assay buffer (Table 1). The reaction was allowed to proceed for 3 hours (FGFR3), 1 hour (VEGFR2, PDGFR-beta) at room temperature on a plate shaker at 700 rpm before being stopped with 35 mM EDTA, pH 8 (FGFR3, VEGFR2) or 55 mM EDTA, pH 8 (PDGFR-beta). 5× detection mix (50 mM HEPES pH 7.5, 0.1% BSA, 11.34 nM Eu-anti-pY (PY20) (PerkinElmer) 74 nM SA-XL665 (Cisbio) for FGFR3, 50 mM HEPES, pH 7.5, 0.1% BSA, 11.34 nM Eu-anti-pY (PY20), 187.5 nM SA-XL665 for VEGFR2 and 50 mM HEPES, pH 7.5, 0.1% BSA, 11.34 nM Eu-anti-pY (PT66) (PerkinElmer), 375 nM SA-XL665 (Cisbio) for PDGFR-beta) was then added to each well and the plate sealed and incubated at room temperature for one hour on a plate shaker at 700 rpm. The plate was then read on a Packard Fusion plate reader or a BMG Pherastar both in TRF mode.

The target of another data set is T2, Ba/F3-TEL-FGFR3 cells (Homo sapiens, UniProt P22607).
T2 construct: fused on or other part: P41212 (Transcription factor ETV6)
T2 sequence (P22607 whole entry, change not shown, the tested form may be a part): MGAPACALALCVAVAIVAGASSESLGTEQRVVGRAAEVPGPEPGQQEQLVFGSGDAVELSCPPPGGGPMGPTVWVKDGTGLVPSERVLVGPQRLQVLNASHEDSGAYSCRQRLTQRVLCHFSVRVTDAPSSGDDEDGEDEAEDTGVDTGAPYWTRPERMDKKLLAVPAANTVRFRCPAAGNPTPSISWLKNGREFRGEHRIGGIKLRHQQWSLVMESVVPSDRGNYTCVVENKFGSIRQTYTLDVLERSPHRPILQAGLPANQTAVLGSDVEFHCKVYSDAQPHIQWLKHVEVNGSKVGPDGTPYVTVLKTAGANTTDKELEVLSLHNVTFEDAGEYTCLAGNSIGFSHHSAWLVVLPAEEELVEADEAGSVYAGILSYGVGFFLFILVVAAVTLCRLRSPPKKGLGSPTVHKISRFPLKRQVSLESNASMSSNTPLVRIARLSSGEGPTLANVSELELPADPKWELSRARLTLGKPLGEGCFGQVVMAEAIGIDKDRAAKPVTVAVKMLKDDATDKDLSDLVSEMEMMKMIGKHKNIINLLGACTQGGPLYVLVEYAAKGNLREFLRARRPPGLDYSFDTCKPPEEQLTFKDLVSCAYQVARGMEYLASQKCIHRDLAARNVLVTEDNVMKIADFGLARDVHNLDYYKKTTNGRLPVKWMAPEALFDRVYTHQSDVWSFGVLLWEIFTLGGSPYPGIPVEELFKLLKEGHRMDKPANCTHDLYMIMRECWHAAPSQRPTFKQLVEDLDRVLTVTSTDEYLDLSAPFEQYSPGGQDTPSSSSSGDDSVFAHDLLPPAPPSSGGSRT
Briefly: Ba/F3-TEL-FGFR3 cell proliferation assay. Format: cell-based. The conditions noted are these: 72 hours. As to the method:
(§3) Ba/F3-TEL-FGFR3 & Ba/F3 (WT) Cell Proliferation Assays
(§4) Stably transfected Ba/F3-TEL-FGFR3 cells were plated out into black 96-well tissue culture plates with clear bottoms in RPMI medium containing 10% FBS and 0.25 mg/ml G418 at a density of 5×10^3 cells/well (200 μl per well). The parental wild-type Ba/F3 cells (DSMZ no.: ACC 300) were plated out into black 96-well tissue culture plates with clear bottoms in RPMI medium containing 10% FBS and 2 ng/ml mouse IL-3 (R&D Sysems) at a density of 2.5×10^3 cells/well (200 μl per well). Plates were placed in an incubator overnight before adding the compounds the following day. Dilutions of compounds were made in DMSO starting at 10 mM and were diluted into the wells to give a final DMSO concentration of 0.1% in assay. Compounds were left on the cells for 72 hours before the plates were removed from the incubator and 20 μl of Alamar Blue™ (Biosource) was added to each well. Plates were placed in the incubator for 4-6 hours before reading plates at 535 nm (excitation)/590 nm (emission) on a Fusion plate reader (Packard). Where inhibition is high an IC50 can be determined.

The target of a further data set is T3, FGFR3 (Homo sapiens, UniProt P22607).
T3 construct: purchased Upstate
T3 sequence (P22607 23-806): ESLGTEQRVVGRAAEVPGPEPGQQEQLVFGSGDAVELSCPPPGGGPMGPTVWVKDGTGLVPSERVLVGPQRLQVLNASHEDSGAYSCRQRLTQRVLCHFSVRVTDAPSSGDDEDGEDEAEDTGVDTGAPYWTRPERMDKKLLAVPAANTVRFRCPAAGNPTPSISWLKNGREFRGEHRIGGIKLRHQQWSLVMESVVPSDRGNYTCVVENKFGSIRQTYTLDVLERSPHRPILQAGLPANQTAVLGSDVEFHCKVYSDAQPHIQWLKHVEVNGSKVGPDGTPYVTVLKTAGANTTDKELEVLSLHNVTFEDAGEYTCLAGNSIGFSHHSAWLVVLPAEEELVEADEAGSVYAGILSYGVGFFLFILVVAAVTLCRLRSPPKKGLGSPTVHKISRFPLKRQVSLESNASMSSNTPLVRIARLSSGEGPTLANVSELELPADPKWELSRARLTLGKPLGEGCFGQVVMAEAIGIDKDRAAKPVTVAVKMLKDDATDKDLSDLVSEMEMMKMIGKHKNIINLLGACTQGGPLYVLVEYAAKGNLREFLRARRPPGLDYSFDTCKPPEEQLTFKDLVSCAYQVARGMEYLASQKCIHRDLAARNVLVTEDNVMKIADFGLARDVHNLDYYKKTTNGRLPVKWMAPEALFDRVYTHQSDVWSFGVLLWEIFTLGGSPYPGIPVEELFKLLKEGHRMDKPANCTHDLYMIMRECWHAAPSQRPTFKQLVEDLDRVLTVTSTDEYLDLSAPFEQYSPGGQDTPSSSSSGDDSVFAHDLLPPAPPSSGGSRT
The data set is described as follows: Biological Assays B: FGFR3 in vitro kinase inhibitory activity assay. Format: biochemical. The conditions noted are these: 8 μM ATP, read-out: FGFR3 pIC50 (converted). Here is the method: as §1, §2

Data set [1] concerns parental wild-type Ba/F3 cells. The data set is described as follows: Ba/F3 (WT) cell proliferation assay. The class given is cell-based. The conditions noted are these: BaF3; 72 hours, 2 ng/ml mouse IL-3; read-out: BAF3_WT pIC50 (converted). As to the method:
as §3, §4

The structures appear in SMILES notation.

T1 sequence (P35968 20-1356): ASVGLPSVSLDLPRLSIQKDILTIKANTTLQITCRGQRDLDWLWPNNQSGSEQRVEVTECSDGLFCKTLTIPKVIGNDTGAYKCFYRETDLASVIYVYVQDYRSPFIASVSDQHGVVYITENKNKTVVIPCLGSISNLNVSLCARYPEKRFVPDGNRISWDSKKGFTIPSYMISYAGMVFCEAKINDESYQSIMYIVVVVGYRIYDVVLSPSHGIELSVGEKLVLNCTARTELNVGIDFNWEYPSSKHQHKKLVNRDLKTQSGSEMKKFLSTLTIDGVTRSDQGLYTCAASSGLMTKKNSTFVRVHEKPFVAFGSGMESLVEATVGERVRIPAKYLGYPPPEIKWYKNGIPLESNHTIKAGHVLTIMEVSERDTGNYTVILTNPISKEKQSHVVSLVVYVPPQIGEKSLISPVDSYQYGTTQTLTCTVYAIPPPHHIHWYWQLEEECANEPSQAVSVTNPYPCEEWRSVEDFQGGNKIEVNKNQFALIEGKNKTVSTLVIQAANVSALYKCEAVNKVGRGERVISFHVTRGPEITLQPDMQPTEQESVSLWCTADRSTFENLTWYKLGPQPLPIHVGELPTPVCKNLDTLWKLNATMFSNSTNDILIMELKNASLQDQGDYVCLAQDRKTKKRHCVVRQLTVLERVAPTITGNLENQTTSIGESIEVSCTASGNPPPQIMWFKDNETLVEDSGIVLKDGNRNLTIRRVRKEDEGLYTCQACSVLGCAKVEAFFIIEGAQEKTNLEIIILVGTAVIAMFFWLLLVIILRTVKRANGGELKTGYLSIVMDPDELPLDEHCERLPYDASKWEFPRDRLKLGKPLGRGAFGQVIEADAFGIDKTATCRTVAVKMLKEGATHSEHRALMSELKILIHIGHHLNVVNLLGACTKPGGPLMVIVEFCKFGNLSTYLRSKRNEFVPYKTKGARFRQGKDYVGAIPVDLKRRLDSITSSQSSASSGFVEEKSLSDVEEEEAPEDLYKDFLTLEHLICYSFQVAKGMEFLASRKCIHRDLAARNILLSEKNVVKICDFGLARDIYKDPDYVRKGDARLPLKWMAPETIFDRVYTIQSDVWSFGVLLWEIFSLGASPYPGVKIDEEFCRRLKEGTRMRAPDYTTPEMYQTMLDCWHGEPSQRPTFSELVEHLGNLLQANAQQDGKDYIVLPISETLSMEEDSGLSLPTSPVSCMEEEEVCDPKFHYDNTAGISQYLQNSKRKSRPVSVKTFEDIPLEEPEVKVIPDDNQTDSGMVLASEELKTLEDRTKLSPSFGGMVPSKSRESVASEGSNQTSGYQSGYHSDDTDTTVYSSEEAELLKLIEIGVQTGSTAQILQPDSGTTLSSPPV
Chain of FGFR3 (h) (P22607 23-806): as the sequence (P22607 23-806) above

Turning to `COc1cc(OC)cc(C(O)(CNCCNC(C)C)c2ccc3ncc(-c4cnn(C)c4)nc3c2)c1` (single isomer, unassigned) [Compound 5], the IC50 on FGFR3 (h) is 0.575 µM.

For the compound `COc1cc(OC)cc(C(O)(CNCCNC(C)C)c2ccc3ncc(-c4cnn(C)c4)nc3c2)c1` (single isomer, unassigned) [Compound 6], the IC50 on FGFR3 (h) is 0.676 µM.

With `COc1cc(OC)cc(C(CCNC(C)C)c2ccc3ncc(-c4cnn(C)c4)nc3c2)c1` (single isomer, unassigned) [Compound 19a], at FGFR3 (h), the IC50 was 0.0214 µM.

For the compound `COc1cc(OC)cc(C(NCCNC(C)C)c2ccc3ncc(-c4cnn(C)c4)nc3c2)c1.Cl` (single isomer, unassigned) [Compound 24], the IC50 on FGFR3 (h) was 0.257 µM.

On to `COc1cc(OC)cc(C(CCNC(C)C)c2ccc3ncc(-c4cnn(C)c4)nc3c2)c1` (single isomer, unassigned) [Compound 32a], for which the IC50 at FGFR3 (h) was ~0.912 µM.

Compound `CNCC(O)(c1cc(OC)cc(OC)c1)c1ccc2ncc(-c3cnn(C)c3)nc2c1.Cl` (single isomer, unassigned) [Compound 37] showed a melting point of 174 °C. The IC50 on FGFR3 (h) is 0.537 µM.

The compound `CNCC(O)(c1cc(OC)cc(OC)c1)c1ccc2ncc(-c3cnn(C)c3)nc2c1.Cl` (single isomer, unassigned) [Compound 38] had a melting point of 169 °C. Also, at FGFR3 (h), the IC50 was > 1 µM.

In the case of `COc1cc(OC)cc(C(NCCNC(C)C)c2ccc3ncc(-c4cnn(C)c4)nc3c2)c1.Cl` (single isomer, unassigned) [Compound 39], at FGFR3 (h), the IC50 is > 1 µM.

For `COc1cc(OC)cc(C(=O)c2ccc3ncc(-c4cnn(C)c4)nc3c2)c1` [Compound 2], the melting point came to 162 °C. In addition, at FGFR3 (h), the IC50 is 0.0661 µM.

Take `COc1cc(OC)cc(/C(=C/C#N)c2ccc3ncc(-c4cnn(C)c4)nc3c2)c1` [Compound 3]: the melting point was 223 °C. The IC50 on FGFR3 (h) is 2.19 µM.

Take `COc1cc(OC)cc(/C(=C\C#N)c2ccc3ncc(-c4cnn(C)c4)nc3c2)c1` [Compound 4]: the melting point was 204 °C. In addition, at FGFR3 (h), the IC50 was 0.0363 µM.

As for `COc1cc(OC)cc(C(CCN2CCCC2=O)c2ccc3ncc(-c4cnn(C)c4)nc3c2)c1.Cl` (stereo not drawn) [Compound 7], the IC50 on FGFR3 (h) was ~0.0126 µM.

`COc1cc(OC)cc(/C(=C\CNC(C)C)c2ccc3ncc(-c4cnn(C)c4)nc3c2)c1` [Compound 8, {(Z)-3-(3,5-Dimethoxy-phenyl)-3-[3-(1-methyl-1H-pyrazol-4-yl)-quinoxalin-6-yl]-allyl}-isopropyl-amine] came in with a melting point of 164 °C. In addition, on FGFR3 (h), the IC50 is 0.00871 µM.

`COc1cc(OC)cc(/C(=C/CNC(C)C)c2ccc3ncc(-c4cnn(C)c4)nc3c2)c1` [Compound 9]: the IC50 on FGFR3 (h) is 0.123 µM.

With `COc1cc(OC)cc(/C(=C\CN(C)C)c2ccc3ncc(-c4cnn(C)c4)nc3c2)c1` [Compound 10, {(Z)-3-(3,5-Dimethoxy-phenyl)-3-[3-(1-methyl-1H-pyrazol-4-yl)-quinoxalin-6-yl]-allyl}-dimethyl-amine], the melting point was determined as 164 °C. The IC50 at FGFR3 (h) was 0.00912 µM.

Consider `COc1cc(OC)cc(/C(=C\CNCC(F)(F)F)c2ccc3ncc(-c4cnn(C)c4)nc3c2)c1` [Compound 14, {(Z)-3-(3,5-Dimethoxy-phenyl)-3-[3-(1-methyl-1H-pyrazol-4-yl)-quinoxalin-6-yl]-allyl}-(2,2,2-trifluoro-ethyl)-amine], for which the IC50 at FGFR3 (h) is 0.00468 µM.

With `COc1cc(OC)cc(C(CC#N)c2ccc3ncc(-c4cnn(C)c4)nc3c2)c1` (stereo not drawn) [Compound 18], the IC50 was 6.31 µM on VEGFR2 and 0.0437 µM at FGFR3 (h).

As for `COc1cc(OC)cc(C(CCN)c2ccc3ncc(-c4cnn(C)c4)nc3c2)c1.Cl` (stereo not drawn) [Compound 20], the melting point worked out at 211 °C. For the same compound, at VEGFR2, the IC50 was 3.16 µM. The IC50 on FGFR3 (h) is 0.0617 µM.

Consider `COc1cc(OC)cc(C(CCN(C)C)c2ccc3ncc(-c4cnn(C)c4)nc3c2)c1.Cl` (stereo not drawn) [Compound 21], for which the IC50 at FGFR3 (h) is 0.0676 µM.

As for `COc1cc(OC)cc(C(CCO)c2ccc3ncc(-c4cnn(C)c4)nc3c2)c1` (stereo not drawn) [Compound 22], the melting point amounted to 114 °C. Moreover, the IC50 at VEGFR2 was 3.98 µM. Further, the “BAF3_TEL_FGFR3 pIC50” value at Ba/F3-TEL-FGFR3 cells was determined as 6.85. The IC50 at FGFR3 (h) was 0.0513 µM.

The compound `COc1cc(OC)cc(C(CC(=O)NC(C)C)c2ccc3ncc(-c4cnn(C)c4)nc3c2)c1` (stereo not drawn) [Compound 23] came in with a melting point of 186 °C. In addition, the IC50 on FGFR3 (h) is > 1 µM.

Consider `COc1cc(OC)cc(C(CC(C)(O)CNC(C)C)c2ccc3ncc(-c4cnn(C)c4)nc3c2)c1.Cl` (stereo not drawn) [Compound 25], for which the IC50 on FGFR3 (h) was 0.708 µM.

As for `Cn1cc(-c2cnc3ccc(C(O)c4ccccc4)cc3n2)cn1` (stereo not drawn) [Compound 28], at FGFR3 (h), the IC50 is 3.72 µM.

In turn, `COc1cc(OC)cc(C(CCNC(C)C)c2ccc3ncc(-c4cnn(C)c4)nc3c2)c1.Cl` (stereo not drawn) [Compound 29, {3-(3,5-Dimethoxy-phenyl)-3-[3-(1-methyl-1H-pyrazol-4-yl)-quinoxalin-6-yl]-propyl}-isopropyl-amine] had a melting point of 148 °C. Moreover, at VEGFR2, the IC50 is 1 µM. Besides, the “BAF3_TEL_FGFR3 pIC50” value at Ba/F3-TEL-FGFR3 cells is listed as 7.7. Besides, the IC50 at FGFR3 (h) is 0.0355 µM. The IC50 on FGFR3 was 0.02 µM. In addition, the IC50 in data set [1] was 5.01 µM.

With `COc1cc(OC)cc(C2(c3ccc4ncc(-c5cnn(C)c5)nc4c3)CC2)c1` [Compound 30], the melting point came to 140 °C. Also, at VEGFR2, the IC50 was 0.282 µM. On FGFR3 (h), the IC50 is 0.0437 µM. Besides, the IC50 at FGFR3 is 0.02 µM.

As to `COc1cc(OC)cc(C(CCNCC(F)(F)F)c2ccc3ncc(-c4cnn(C)c4)nc3c2)c1.Cl` (stereo not drawn) [Compound 33], the melting point came out at 162 °C. At FGFR3 (h), the IC50 was 0.138 µM.

Regarding `COc1cc(OC)cc(/C(=C/CN(C)C)c2ccc3ncc(-c4cnn(C)c4)nc3c2)c1` [Compound 34], the melting point amounted to 177 °C. In addition, the IC50 at FGFR3 (h) was 0.107 µM.

Take `CN(C)CCC(c1ccccc1)c1ccc2ncc(-c3cnn(C)c3)nc2c1` (stereo not drawn) [Compound 35]: on FGFR3 (h), the IC50 was > 1 µM.

`COc1cc(OC)cc(C(CCCN)c2ccc3ncc(-c4cnn(C)c4)nc3c2)c1.Cl` (stereo not drawn) [Compound 40] had a melting point of 140 °C. Further, the IC50 on FGFR3 (h) is 0.269 µM.
